From paper PMC11992225, “Antibacterial compounds against non-growing and intracellular bacteria” (npj Antimicrobials and Resistance, 2025)
pEC50: −log10 of the molar value. ≈ marks a conversion by molar mass, not a printed value. Read-outs that look alike come from different tables or passages of the source.

Assays:
E. coli CFT073 (UPEC) = test: MIC, standard microdilution assay, growing UPEC; format: cell-based, Escherichia coli; settings: E. coli
How it was run: (§1)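 Medium: CA-MHB + 40 mM HEPES, pH 7.4 (UPEC, P. aeruginosa, S. aureus); LPM + 30 mM MES, pH 5.5 (UPEC, extra condition); TSB (S. flexneri). Microdilution format, n = 3.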

P. aeruginosa DSM1117 = test: MIC, standard microdilution assay, growing P. aeruginosa; format: cell-based, Pseudomonas aeruginosa; settings: P. aeruginosa, CA-MHB pH 7.4, read-out: MIC (μM) CA-MHB
How it was run: as §1

S. aureus DSM2569 = test: MIC, standard microdilution assay, growing S. aureus; format: cell-based, Staphylococcus aureus; settings: S. aureus; for MIC: CA-MHB pH 7.4, read-out: MIC (μM) CA-MHB
How it was run: as §1

S. flexneri 5a M90T = test: MIC in tryptic soy broth, S. flexneri; format: cell-based, Shigella flexneri; settings: for MIC: Shigella flexneri, 5AM90T, read-out: MIC (μM) TSB
How it was run: as §1

non-growing UPEC CFT073 = test: Dilution-regrowth assay (screen, hit validation, dose-response) on stationary-phase UPEC; format: cell-based, Escherichia coli; settings: for Regrowth: OD600 after dilution into drug-free medium (mean): OD600 at 6h or 8h; for OD600 at 6hr, Mean: after dilution into drug-free medium
How it was run: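 Regrowth (OD600 after 6 h, 37 °C) of diluted non-growing CFT073, following 24 h compound treatment of 24 h stationary cultures, defines activity relative to untreated control. Screen at 20 µM, validation at 20, 10, 5 µM (duplicates), dose–response in three biological replicates fitted by five-parameter logistic.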

[1] = Escherichia coli, LPM pH 5.5, read-out: MIC
[2] = Escherichia coli, pH 7.4, 1:4 diluted CA-MHB, read-out: MIC (μM) 1:4 CA-MHB
[3] = Escherichia coli, pH 7.4, CA-MHB, read-out: MIC (μM) CA-MHB
[4] = Pseudomonas aeruginosa, DSM1117
[5] = Escherichia coli, E. coli, LPM pH 5.5, regrowth delay of non-growing bacteria, 24 h treatment, OD600 6 h after 2500-fold dilution, read-out: EC50
[6] = Escherichia coli, LPM pH 5.5 (red curve), medium assigned by comparison with Dataset 1, read-out: EC50 (regrowth inhibition curve, Fig. S4)

CO[C@H]1/C=C/O[C@@]2(C)Oc3c(C)c(O)c4c(O)c(c(/C=N/N5CCN(C)CC5)c(O)c4c3C2=O)NC(=O)/C(C)=C\C=C\[C@H](C)[C@H](O)[C@@H](C)[C@@H](O)[C@@H](C)[C@H](OC(C)=O)[C@@H]1C [Rifampicin]
MIC (μM) CA-MHB +PAβN (E. coli CFT073 (UPEC); pH 7.4, CA-MHB with 10 μg/ml efflux pump inhibitor PaβN): 1 µM (≈ 0.823 µg/mL)
MIC (E. coli CFT073 (UPEC); [1]): 0.5 µM (≈ 0.411 µg/mL)
MIC (E. coli CFT073 (UPEC); [2]): 5 µM (≈ 4.11 µg/mL)
MIC (E. coli CFT073 (UPEC); [3]): 8 µM (≈ 6.58 µg/mL)
MIC (P. aeruginosa DSM1117; [4]): 80 µM (≈ 65.8 µg/mL)
MIC (S. aureus DSM2569; Staphylococcus aureus, DSM2569): 0.0125 µM (≈ 0.0103 µg/mL)
MIC (S. flexneri 5a M90T): 8 µM (≈ 6.58 µg/mL)
pEC50 (non-growing UPEC CFT073; [5]): 6.02
pEC50 (non-growing UPEC CFT073; [6]): 6.01

CO[C@H]1/C=C/O[C@@]2(C)Oc3c(C)c(O)c4c(O)c(c(/C=N/N5CCN(C6CCCC6)CC5)c(O)c4c3C2=O)NC(=O)/C(C)=C\C=C\[C@H](C)[C@H](O)[C@@H](C)[C@@H](O)[C@@H](C)[C@H](OC(C)=O)[C@@H]1C [Rifapentine]
MIC (E. coli CFT073 (UPEC); [1]): 0.25 µM (≈ 0.219 µg/mL)
MIC (E. coli CFT073 (UPEC); [2]): 5 µM (≈ 4.39 µg/mL)
MIC (E. coli CFT073 (UPEC); [3]): 8 µM (≈ 7.02 µg/mL)
MIC (P. aeruginosa DSM1117; [4]): 80 µM (≈ 70.2 µg/mL)
MIC (S. aureus DSM2569; Staphylococcus aureus, DSM2569): 0.0125 µM (≈ 0.011 µg/mL)
MIC (S. flexneri 5a M90T): 16 µM (≈ 14 µg/mL)
Regrowth: OD600 after dilution into drug-free medium (mean) (non-growing UPEC CFT073; E. coli in 1:4 CA-MHB (pH 7.4), concentration 0.25): 0.612
Regrowth: OD600 after dilution into drug-free medium (mean) (non-growing UPEC CFT073; E. coli in 1:4 CA-MHB (pH 7.4), concentration 0.5): 0.591
Regrowth: OD600 after dilution into drug-free medium (mean) (non-growing UPEC CFT073; E. coli in 1:4 CA-MHB (pH 7.4), concentration 1): 0.589
Regrowth: OD600 after dilution into drug-free medium (mean) (non-growing UPEC CFT073; E. coli in 1:4 CA-MHB (pH 7.4), concentration 2.5): 0.581
Regrowth: OD600 after dilution into drug-free medium (mean) (non-growing UPEC CFT073; E. coli in 1:4 CA-MHB (pH 7.4), concentration 5): 0.558
Regrowth: OD600 after dilution into drug-free medium (mean) (non-growing UPEC CFT073; E. coli in 1:4 CA-MHB (pH 7.4), concentration 10): 0.549
Regrowth: OD600 after dilution into drug-free medium (mean) (non-growing UPEC CFT073; E. coli in 1:4 CA-MHB (pH 7.4), concentration 30): 0.527
Regrowth: OD600 after dilution into drug-free medium (mean) (non-growing UPEC CFT073; E. coli in LPM (pH 5.5), concentration 0.25): 0.548
Regrowth: OD600 after dilution into drug-free medium (mean) (non-growing UPEC CFT073; E. coli in LPM (pH 5.5), concentration 0.5): 0.505
Regrowth: OD600 after dilution into drug-free medium (mean) (non-growing UPEC CFT073; E. coli in LPM (pH 5.5), concentration 1): 0.379
Regrowth: OD600 after dilution into drug-free medium (mean) (non-growing UPEC CFT073; E. coli in LPM (pH 5.5), concentration 2.5): 0.232
Regrowth: OD600 after dilution into drug-free medium (mean) (non-growing UPEC CFT073; E. coli in LPM (pH 5.5), concentration 5): 0.178
Regrowth: OD600 after dilution into drug-free medium (mean) (non-growing UPEC CFT073; E. coli in LPM (pH 5.5), concentration 10): 0.148
Regrowth: OD600 after dilution into drug-free medium (mean) (non-growing UPEC CFT073; E. coli in LPM (pH 5.5), concentration 30): 0.112
pEC50 (non-growing UPEC CFT073; [5]): 5.93
pEC50 (non-growing UPEC CFT073; [6]): 5.92

Bleomycin
MIC (E. coli CFT073 (UPEC); LPM pH 5.5, read-out: MIC): 0.5 µM
MIC (E. coli CFT073 (UPEC); pH 7.4, CA-MHB, read-out: MIC (μM) CA-MHB): 0.5 µM
MIC (P. aeruginosa DSM1117): >100 µM
MIC (μM) 1:4 CA-MHB (S. aureus DSM2569; 1:4 diluted CA-MHB pH 7.4): 3.125 µM
MIC (S. aureus DSM2569): 12.5 µM
MIC (μM) TSB (S. flexneri 5a M90T; S. flexneri, extracellular bacteria in TSB): 0.25 µM
OD600 at 6hr, Mean (non-growing UPEC CFT073; E. coli in 1:4 CA-MHB (pH 7.4), 0.25 μM): 0.585
OD600 at 6hr, Mean (non-growing UPEC CFT073; E. coli in 1:4 CA-MHB (pH 7.4), 0.5 μM): 0.575
OD600 at 6hr, Mean (non-growing UPEC CFT073; E. coli in 1:4 CA-MHB (pH 7.4), 1 μM): 0.327
OD600 at 6hr, Mean (non-growing UPEC CFT073; E. coli in 1:4 CA-MHB (pH 7.4), 2.5 μM): 0.130
OD600 at 6hr, Mean (non-growing UPEC CFT073; E. coli in 1:4 CA-MHB (pH 7.4), 5 μM): 0.073
OD600 at 6hr, Mean (non-growing UPEC CFT073; E. coli in 1:4 CA-MHB (pH 7.4), 10 μM): 0.067
OD600 at 6hr, Mean (non-growing UPEC CFT073; E. coli in 1:4 CA-MHB (pH 7.4), 30 μM): 0.076
OD600 at 6hr, Mean (non-growing UPEC CFT073; E. coli in LPM (pH 5.5), 0.25 μM): 0.600
OD600 at 6hr, Mean (non-growing UPEC CFT073; E. coli in LPM (pH 5.5), 0.5 μM): 0.583
OD600 at 6hr, Mean (non-growing UPEC CFT073; E. coli in LPM (pH 5.5), 1 μM): 0.569
OD600 at 6hr, Mean (non-growing UPEC CFT073; E. coli in LPM (pH 5.5), 2.5 μM): 0.559
OD600 at 6hr, Mean (non-growing UPEC CFT073; E. coli in LPM (pH 5.5), 5 μM): 0.513
OD600 at 6hr, Mean (non-growing UPEC CFT073; E. coli in LPM (pH 5.5), 10 μM): 0.348
OD600 at 6hr, Mean (non-growing UPEC CFT073; E. coli in LPM (pH 5.5), 30 μM): 0.169
pEC50 (non-growing UPEC CFT073; E. coli, LPM pH 5.5, regrowth delay of non-growing bacteria, 24 h treatment, OD600 6 h after 2500-fold dilution, read-out: EC50): 5.02
pEC50 (non-growing UPEC CFT073; E. coli, pH 7.4, regrowth delay of non-growing bacteria, 1:4 CA-MHB, 24 h treatment, OD600 6 h after 2500-fold dilution, read-out: EC50): 6.01
